{"source": "ChEMBL document CHEMBL1177733", "about": "“Mayamycin, a cytotoxic polyketide from a Streptomyces strain isolated from the marine sponge Halichondria panicea” (J Nat Prod, 2010)", "key": {"[1]": {"test": "Cytotoxicity against human RXF 486L cells by modified propidium iodide monolayer assay"}, "[2]": {"test": "Cytotoxicity against human MEXF 462NL cells by modified propidium iodide monolayer assay"}, "[3]": {"test": "Cytotoxicity against human PAXF 1657L cells by modified propidium iodide monolayer assay"}, "[4]": {"test": "Cytotoxicity against human GXF251L cells after 24 hrs by propidium iodide monolayer assay", "settings": "GXF 251L"}, "[5]": {"test": "Cytotoxicity against human LXFL529 cells after 24 hrs by propidium iodide monolayer assay", "settings": "LXFL 529, 24 h"}, "[6]": {"test": "Cytotoxicity against human MAXF 401NL cells after 24 hrs by propidium iodide monolayer assay"}, "Dermabacter hominis": {"system": "Dermabacter hominis", "test": "Antibacterial activity against Dermabacter hominis DSM 7083 after 24 hrs by microtiter plate assay", "settings": "DSM 7083, 24 h"}, "[7]": {"system": "Brevibacterium epidermidis", "test": "Antibacterial activity against Brevibacterium epidermidis DSM 20660 after 14-16 hrs by microtiter plate assay", "settings": "DSM 20660, 14-16 h"}, "HT-29": {"system": "HT-29", "test": "Cytotoxicity against human HT-29 cells after 24 hrs by CellTiter-BlueCell viability assay", "type": "functional, cell-based", "settings": "HT-29, 24 h"}, "Staphylococcus aureus": {"system": "Staphylococcus aureus", "test": "Antibacterial activity against Staphylococcus aureus ATCC 12600 after 48 hrs by microtiter plate assay", "type": "functional, organism-based", "settings": "ATCC 12600, 48 h"}, "Cutibacterium acnes": {"system": "Cutibacterium acnes", "test": "Antibacterial activity against Propionibacterium acnes DSM 1897 after 48 hrs by microtiter plate assay", "type": "functional, organism-based", "settings": "DSM 1897, 48 h"}, "Bacillus subtilis": {"system": "Bacillus subtilis", "test": "Antibacterial activity against Bacillus subtilis DSM 347 after 14-16 hrs by microtiter plate assay", "settings": "DSM 347, 14-16 h"}, "Mammaliicoccus lentus": {"system": "Mammaliicoccus lentus", "test": "Antibacterial activity against Staphylococcus lentus DSM 6672 after 14-16 hrs by microtiter plate assay", "settings": "DSM 6672, 14-16 h"}, "Xanthomonas campestris": {"system": "Xanthomonas campestris", "test": "Antibacterial activity against Xanthomonas campestris DSM 2405 after 14-16 hrs by microtiter plate assay", "settings": "DSM 2405, 14-16 h"}, "Pseudomonas aeruginosa": {"system": "Pseudomonas aeruginosa", "test": "Antibacterial activity against Pseudomonas aeruginosa DSM 50071 after 14-16 hrs by microtiter plate assay", "settings": "DSM 50071, 14-16 h"}}, "data": [{"smiles": "COc1cccc2c1C(=O)c1c(O)c3c(c(O)c1C2=O)C[C@@](O)(C(=O)CO)C[C@@H]3O[C@H]1C[C@H](N)[C@H](O)[C@H](C)O1", "note": "[DOXORUBICIN]", "values": [{"measurement": "IC50", "setting": "[1]", "value": "≤ 52", "unit": "nM"}, {"measurement": "IC50", "setting": "[2]", "value": "< 52", "unit": "nM"}, {"measurement": "IC50", "setting": "[3]", "value": "< 52", "unit": "nM"}, {"measurement": "IC50", "setting": "[4]", "value": "< 52", "unit": "nM"}, {"measurement": "IC50", "setting": "[5]", "value": "< 52", "unit": "nM"}, {"measurement": "IC50", "setting": "[6]", "value": "< 52", "unit": "nM"}]}, {"smiles": "CN(C)[C@@H]1C(O)=C(C(N)=O)C(=O)[C@@]2(O)C(O)=C3C(=O)c4c(O)cccc4[C@@](C)(O)[C@H]3C[C@@H]12", "note": "[TETRACYCLINE]", "values": [{"measurement": "IC50", "setting": "Dermabacter hominis", "value": 1200, "unit": "nM"}, {"measurement": "IC50", "setting": "[7]", "value": 13900, "unit": "nM"}]}, {"smiles": "CC/C(=C(\\c1ccccc1)c1ccc(OCCN(C)C)cc1)c1ccccc1", "note": "[TAMOXIFEN]", "values": [{"measurement": "IC50", "setting": "HT-29", "value": 38600, "unit": "nM"}]}, {"smiles": "COc1c(N2C[C@@H]3CCCN[C@@H]3C2)c(F)cc2c(=O)c(C(=O)O)cn(C3CC3)c12", "note": "[MOXIFLOXACIN]", "values": [{"measurement": "IC50", "setting": "Staphylococcus aureus", "value": 7500, "unit": "nM"}]}, {"smiles": "O=C(N[C@H](CO)[C@H](O)c1ccc([N+](=O)[O-])cc1)C(Cl)Cl", "note": "[CHLORAMPHENICOL]", "values": [{"measurement": "IC50", "setting": "Cutibacterium acnes", "value": 1000, "unit": "nM"}, {"measurement": "IC50", "setting": "Bacillus subtilis", "value": 9000, "unit": "nM"}, {"measurement": "IC50", "setting": "Mammaliicoccus lentus", "value": 2300, "unit": "nM"}, {"measurement": "IC50", "setting": "Xanthomonas campestris", "value": 3600, "unit": "nM"}, {"measurement": "IC50", "setting": "Pseudomonas aeruginosa", "value": 27300, "unit": "nM"}]}]}
